Experimental data as given in patent EP0023335A1, “N-Hydroxyalkylimidazoline derivatives, a method for their preparation and their application” (Henkel Kommanditgesellschaft auf Aktien, priority 1979, dated 1981).
In brackets after ≈: the same amount, converted by molar mass.

Legend:
Format in all cases: cell-based
[1] = test system: Candida albicans; experiment: Microbicidal action in suspension test; conditions: inoculum 1,9 x 10^8 /ml diluted 1:100, room temperature, in H2O
Experimental: (§1) 55,0 g (0,26 Mol) des Imidazolins Nr. 6 der Tabelle 1 wurden in 30 ml Isopropanol gelöst und mit 32,6 g (0,26 Mol) Benzylchlorid in 3 Stunden bei 80'- 85 °C quaterniert. Danach wurde das Isopropanol abdestilliert und das Produkt mit Wasser auf 30 % Aktivsubstanz eingestellt. Die Ergebnisse der Prüfung der mikrobiziden Wirkung einiger Imidazoliniumsalze der Tabelle 2 finden sich in der nachfolgenden Tabelle 3: […]

[2] = test system: Escherichia coli; experiment: Microbicidal action in suspension test; conditions: inoculum 3,7 x 10^8 /ml diluted 1:100, room temperature, in H2O
Experimental: as §1

[3] = test system: Pseudomonas aeruginosa; experiment: Microbicidal action in suspension test; conditions: inoculum 1,6 x 10^8 /ml diluted 1:100, room temperature, in H2O
Experimental: as §1

[4] = test system: Staphylococcus aureus; experiment: Microbicidal action in suspension test; conditions: inoculum 3,0 x 10^8 /ml diluted 1:100, room temperature, in H2O
Experimental: as §1

[5] = test system: Candida albicans ATCC 10 231; experiment: Inhibition series in liquid nutrient medium, tube test CII1 (DGHM guidelines); conditions: ATCC10, read-out: antimikrobielle Wirkung (Hemmreihen)
Text: (§2) Die antimikrobielle Wirkung der vorstehenden Imidazolin-Acetate geht aus folgender Tabelle hervor:
(§3) Die Prüfung erfolgte in Hemmreihen in flüssigem Nährsubstrat gegenüber den genannten Keimen im Röhrchentest CII1 gemäß Richtlinien der DGHM für chemische Desinfektionsmittel.

[6] = test system: Staphylococcus aureus SG 511; experiment: as above; conditions: SG511, read-out: antimikrobielle Wirkung (Hemmreihen)
Text: as §2, §3

SMILES	Abtötungszeit in Minuten ([1]; 10 ppm active) [Minuten]	Abtötungszeit in Minuten ([1]; 50 ppm active) [Minuten]	Abtötungszeit in Minuten ([2]; 10 ppm active)	Abtötungszeit in Minuten ([2]; 50 ppm active)	Abtötungszeit in Minuten ([3]; 10 ppm active) [Minuten]	Abtötungszeit in Minuten ([3]; 50 ppm active) [Minuten]	Abtötungszeit in Minuten ([4]; 10 ppm active)	Abtötungszeit in Minuten ([4]; 50 ppm active)	Abtötungszeit in Minuten ([1]; 100 ppm active) [Minuten]	Abtötungszeit in Minuten ([2]; 100 ppm active)	Abtötungszeit in Minuten ([3]; 100 ppm active) [Minuten]	Abtötungszeit in Minuten ([4]; 100 ppm active)	MIC [5] [µg/mL]	MIC [6] [µg/mL]
CCCCCCCCCCC(O)CN1CC[N+](C)=C1CCCCCCCCC (stereo not shown) [Imidazoliniumsalz 4]	20	20	60 Minuten	10 Minuten	10	10	5 Minuten	5 Minuten						
CCCCCCCCCCC(O)CN1CC[N+](C)=C1CCCCCCC (stereo not shown) [Imidazoliniumsalz 3]	20	5	5 Minuten	≤ 2,5 Minuten	60	10	≤ 2,5 Minuten	≤ 2,5 Minuten						
CCCCCCCCCC1=[N+](C)CCN1CC(O)CCCCCCCC (stereo not shown) [Imidazoliniumsalz 1]		40	x (x = > 120 Minuten)	20 Minuten		20	60 Minuten	≤ 2,5 Minuten	10	≤ 2,5 Minuten	10	≤ 2,5 Minuten		
CCCCCCCCCCC(O)CN1CCN=C1CCCCCCCCC (stereo not shown) [Imidazolin-Nr.4-acetat]													50 (≈ 131 µM)	< 10
